Laboratory results from PubChem BioAssay (NCI).
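Protocol summary: plate cells (96-well), add compound at 5 concentrations, incubate 48 h, interpolate endpoints linearly. The concentration for 50% growth inhibition is given as GI50. TGI: total growth inhibition.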

Key:
Assay in all cases: NCI anticancer screen, dose series, 48 h
SK-OV-3 ovarian = system: SK-OV-3 ovarian
MALME-3M melanoma = system: MALME-3M melanoma
CAKI-1 renal = system: CAKI-1 renal
U251 CNS = system: U251 CNS
M14 melanoma = system: M14 melanoma
UACC-257 melanoma = system: UACC-257 melanoma
K-562 leukemia = system: K-562 leukemia
MDA-MB-231 breast = system: MDA-MB-231 breast
SR leukemia = system: SR leukemia
SK-MEL-2 melanoma = system: SK-MEL-2 melanoma
T-47D breast = system: T-47D breast
OVCAR-8 ovarian = system: OVCAR-8 ovarian
PC-3 prostate = system: PC-3 prostate
NCI-H522 lung = system: NCI-H522 lung
MOLT-4 leukemia = system: MOLT-4 leukemia
MDA-MB-435 = system: MDA-MB-435
SN12C renal = system: SN12C renal
BT-549 breast = system: BT-549 breast
UO-31 renal = system: UO-31 renal
HOP-92 NSCLC = system: HOP-92 NSCLC
SF-268 CNS = system: SF-268 CNS
HOP-62 NSCLC = system: HOP-62 NSCLC
CCRF-CEM leukemia = system: CCRF-CEM leukemia
SW-620 colon = system: SW-620 colon
EKVX NSCLC = system: EKVX NSCLC
SNB-19 CNS = system: SNB-19 CNS
OVCAR-5 ovarian = system: OVCAR-5 ovarian
MCF7 breast = system: MCF7 breast
NCI-H226 lung = system: NCI-H226 lung
HCT-116 colon = system: HCT-116 colon
HCC-2998 colon = system: HCC-2998 colon
786-0 renal = system: 786-0 renal
SNB-75 CNS = system: SNB-75 CNS
HCT-15 colon = system: HCT-15 colon
OVCAR-3 ovarian = system: OVCAR-3 ovarian
ACHN renal = system: ACHN renal
SF-539 CNS = system: SF-539 CNS
LOX IMVI melanoma = system: LOX IMVI melanoma
KM12 colon = system: KM12 colon
UACC-62 melanoma = system: UACC-62 melanoma
SF-295 CNS = system: SF-295 CNS
DU-145 prostate = system: DU-145 prostate
NCI/ADR-RES ovarian = system: NCI/ADR-RES ovarian
SK-MEL-5 melanoma = system: SK-MEL-5 melanoma
SK-MEL-28 melanoma = system: SK-MEL-28 melanoma
IGROV1 ovarian = system: IGROV1 ovarian
NCI-H460 lung = system: NCI-H460 lung
RPMI-8226 leukemia = system: RPMI-8226 leukemia
A498 renal = system: A498 renal
TK-10 renal = system: TK-10 renal

CS(=O)(=O)c1ccc2c(c1)c1c(n2S(=O)(=O)c2ccc(Cl)cc2)CCCC1
GI50 (SK-OV-3 ovarian): 4.95 µM
TGI (SK-OV-3 ovarian): > 100 µM
GI50 (MALME-3M melanoma): 7.11 µM
TGI (MALME-3M melanoma): > 100 µM
GI50 (CAKI-1 renal): 3.12 µM
TGI (CAKI-1 renal): > 100 µM
GI50 (U251 CNS): 4.68 µM
TGI (U251 CNS): > 100 µM
GI50 (M14 melanoma): 3.69 µM
TGI (M14 melanoma): > 100 µM
GI50 (UACC-257 melanoma): 10.3 µM
TGI (UACC-257 melanoma): > 100 µM
GI50 (K-562 leukemia): 0.706 µM
TGI (K-562 leukemia): > 100 µM
GI50 (MDA-MB-231 breast): 4.25 µM
TGI (MDA-MB-231 breast): > 100 µM
GI50 (SR leukemia): 0.594 µM
TGI (SR leukemia): > 100 µM
GI50 (SK-MEL-2 melanoma): 2.15 µM
TGI (SK-MEL-2 melanoma): 7.44 µM
GI50 (T-47D breast): 3.71 µM
TGI (T-47D breast): > 100 µM
GI50 (OVCAR-8 ovarian): 4.11 µM
TGI (OVCAR-8 ovarian): > 100 µM
GI50 (PC-3 prostate): 3.42 µM
TGI (PC-3 prostate): > 100 µM
GI50 (NCI-H522 lung): 1.08 µM
TGI (NCI-H522 lung): 3.39 µM
GI50 (MOLT-4 leukemia): 4.49 µM
TGI (MOLT-4 leukemia): > 100 µM
GI50 (MDA-MB-435): 0.583 µM
TGI (MDA-MB-435): 3.29 µM
GI50 (SN12C renal): 5.19 µM
TGI (SN12C renal): > 100 µM
GI50 (BT-549 breast): 5.39 µM
TGI (BT-549 breast): > 100 µM
GI50 (UO-31 renal): 3.82 µM
TGI (UO-31 renal): > 100 µM
GI50 (HOP-92 NSCLC): 3.04 µM
TGI (HOP-92 NSCLC): > 100 µM
GI50 (SF-268 CNS): > 100 µM
TGI (SF-268 CNS): > 100 µM
GI50 (HOP-62 NSCLC): 4.3 µM
TGI (HOP-62 NSCLC): > 100 µM
GI50 (CCRF-CEM leukemia): 3.16 µM
TGI (CCRF-CEM leukemia): > 100 µM
GI50 (SW-620 colon): 2.82 µM
TGI (SW-620 colon): > 100 µM
GI50 (EKVX NSCLC): 5.55 µM
TGI (EKVX NSCLC): > 100 µM
GI50 (SNB-19 CNS): 5.54 µM
TGI (SNB-19 CNS): > 100 µM
GI50 (OVCAR-5 ovarian): 5.37 µM
TGI (OVCAR-5 ovarian): > 100 µM
GI50 (MCF7 breast): 2.61 µM
TGI (MCF7 breast): > 100 µM
GI50 (NCI-H226 lung): 3.22 µM
TGI (NCI-H226 lung): > 100 µM
GI50 (HCT-116 colon): 3.5 µM
TGI (HCT-116 colon): > 100 µM
GI50 (HCC-2998 colon): 3.57 µM
TGI (HCC-2998 colon): > 100 µM
GI50 (786-0 renal): 4.73 µM
TGI (786-0 renal): > 100 µM
GI50 (SNB-75 CNS): 1.42 µM
TGI (SNB-75 CNS): 6.15 µM
GI50 (HCT-15 colon): 1.93 µM
TGI (HCT-15 colon): > 100 µM
GI50 (OVCAR-3 ovarian): 3.56 µM
TGI (OVCAR-3 ovarian): > 100 µM
GI50 (ACHN renal): 7.56 µM
TGI (ACHN renal): > 100 µM
GI50 (SF-539 CNS): 3.15 µM
TGI (SF-539 CNS): > 100 µM
GI50 (LOX IMVI melanoma): 4.32 µM
TGI (LOX IMVI melanoma): > 100 µM
GI50 (KM12 colon): 3.16 µM
TGI (KM12 colon): > 100 µM
GI50 (UACC-62 melanoma): 3.14 µM
TGI (UACC-62 melanoma): > 100 µM
GI50 (SF-295 CNS): 4.08 µM
TGI (SF-295 CNS): > 100 µM
GI50 (DU-145 prostate): 4.3 µM
TGI (DU-145 prostate): > 100 µM
GI50 (NCI/ADR-RES ovarian): 2.33 µM
TGI (NCI/ADR-RES ovarian): > 100 µM
GI50 (SK-MEL-5 melanoma): 3.92 µM
TGI (SK-MEL-5 melanoma): > 100 µM
GI50 (SK-MEL-28 melanoma): 34.8 µM
TGI (SK-MEL-28 melanoma): > 100 µM
GI50 (IGROV1 ovarian): 5.24 µM
TGI (IGROV1 ovarian): > 100 µM
GI50 (NCI-H460 lung): 3.5 µM
TGI (NCI-H460 lung): > 100 µM
GI50 (RPMI-8226 leukemia): 3.72 µM
TGI (RPMI-8226 leukemia): > 100 µM
GI50 (A498 renal): > 100 µM
TGI (A498 renal): > 100 µM
GI50 (TK-10 renal): > 100 µM
TGI (TK-10 renal): > 100 µM
